According to ChEMBL document CHEMBL3039007, “Structure-based identification of OATP1B1/3 inhibitors” (Mol Pharmacol, 2013):

Tests used:
[1] = molecular target: T1, Solute carrier organic anion transporter family member 1B1 (Homo sapiens, UniProt Q9Y6L6); details: chinese hamster, cho, 10 µM
T1 sequence (Q9Y6L6 whole entry): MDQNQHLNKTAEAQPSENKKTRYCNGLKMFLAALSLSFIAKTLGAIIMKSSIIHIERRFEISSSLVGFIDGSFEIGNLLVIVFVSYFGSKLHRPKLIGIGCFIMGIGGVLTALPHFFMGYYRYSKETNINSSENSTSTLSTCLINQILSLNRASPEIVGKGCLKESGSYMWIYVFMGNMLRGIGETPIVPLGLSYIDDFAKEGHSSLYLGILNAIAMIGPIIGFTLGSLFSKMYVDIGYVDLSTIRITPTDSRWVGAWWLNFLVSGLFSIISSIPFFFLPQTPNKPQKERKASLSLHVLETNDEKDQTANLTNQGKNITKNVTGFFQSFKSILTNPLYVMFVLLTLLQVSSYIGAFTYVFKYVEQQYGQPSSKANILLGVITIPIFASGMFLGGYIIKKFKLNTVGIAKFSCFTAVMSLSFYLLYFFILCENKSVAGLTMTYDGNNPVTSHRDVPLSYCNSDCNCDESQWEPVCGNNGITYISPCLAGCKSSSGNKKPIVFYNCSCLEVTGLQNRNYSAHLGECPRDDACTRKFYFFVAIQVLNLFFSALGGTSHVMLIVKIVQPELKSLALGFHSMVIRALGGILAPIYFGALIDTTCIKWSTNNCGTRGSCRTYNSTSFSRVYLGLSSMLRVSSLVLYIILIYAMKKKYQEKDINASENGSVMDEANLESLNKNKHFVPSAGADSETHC

[2] = molecular target: T2, Solute carrier organic anion transporter family member 1B3 (Homo sapiens, UniProt Q9NPD5); details: chinese hamster, cho, 10 µM
T2 sequence (Q9NPD5 whole entry): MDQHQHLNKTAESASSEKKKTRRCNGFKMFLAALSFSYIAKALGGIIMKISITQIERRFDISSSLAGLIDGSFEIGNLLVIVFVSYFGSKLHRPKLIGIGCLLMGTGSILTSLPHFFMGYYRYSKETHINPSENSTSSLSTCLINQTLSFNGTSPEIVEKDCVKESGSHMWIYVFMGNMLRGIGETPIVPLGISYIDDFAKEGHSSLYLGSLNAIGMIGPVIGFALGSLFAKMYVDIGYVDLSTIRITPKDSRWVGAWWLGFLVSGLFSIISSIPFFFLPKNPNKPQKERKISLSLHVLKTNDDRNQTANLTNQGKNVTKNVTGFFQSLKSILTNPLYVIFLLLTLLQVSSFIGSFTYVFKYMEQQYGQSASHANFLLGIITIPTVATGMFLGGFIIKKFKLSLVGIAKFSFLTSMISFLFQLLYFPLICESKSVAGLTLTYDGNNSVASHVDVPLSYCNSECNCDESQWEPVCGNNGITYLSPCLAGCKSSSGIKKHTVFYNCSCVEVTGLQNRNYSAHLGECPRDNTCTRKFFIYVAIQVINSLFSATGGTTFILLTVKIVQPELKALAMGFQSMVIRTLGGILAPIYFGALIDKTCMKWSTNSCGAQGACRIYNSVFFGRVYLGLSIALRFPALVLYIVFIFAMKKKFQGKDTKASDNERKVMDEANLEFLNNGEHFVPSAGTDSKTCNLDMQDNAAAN

CCOc1cccc(C(=O)c2ccc(O)c(O)c2O)c1
residual activity [1]: 134.3% | residual activity [2]: 108.6%

CNc1ccccc1C(=O)O
residual activity [1]: 90.95% | residual activity [2]: 100.4%

CC(=O)Oc1ccc2c(c1OC(C)=O)OC[C@]1(O)Cc3c(cc(OC(C)=O)c(OC(C)=O)c3OC(C)=O)[C@H]21
residual activity [1]: 101.4% | residual activity [2]: 111.5%

N[C@@H](CSCSC[C@H](N)C(=O)O)C(=O)O
residual activity [1]: 92.41% | residual activity [2]: 96.92%

C=C1C[C@H]2O[C@]2(C)CC[C@@H]2[C@@H]1CC2(C)C
residual activity [1]: 54.1% | residual activity [2]: 80.12%

C[C@H]1[C@H](C)CC[C@@]23CC[C@]4(C)[C@@](C=C[C@@H]5[C@@]6(C)CC[C@H](O)C(C)(C)[C@@H]6CC[C@]54C)(OC2=O)[C@H]13
residual activity [1]: 114.4% | residual activity [2]: 98.51%

C[C@@H]1C[C@H](O)[C@@]2(O)[C@]13CC(=O)OC[C@]2(C)[C@@](C)(O)C(=O)C3
residual activity [1]: 95.73% | residual activity [2]: 109.4%

CC1(C)C[C@@H]2[C@H]1CC[C@]1(C)C[C@@]2(O)CC[C@H]1O
residual activity [1]: 81.35% | residual activity [2]: 87.7%

CC1=CC2C(C(C)C)CC[C@@](C)(O)C2CC1 (some centres undefined)
residual activity [1]: 80.24% | residual activity [2]: 88.94%

C=C[C@@](C)(O)CC[C@H]1C(=C)C[C@H](OC(C)=O)[C@H]2C(C)(C)CCC[C@]12C
residual activity [1]: 81.97% | residual activity [2]: 80.26%

C=C1C([C@]2(C)C(CC(=O)OC)[C@@](C)(COC(C)=O)OC(=O)C[C@H]2OC(C)=O)[C@@H](OC=O)[C@@H](OC(=O)C(O)C(C)CC)[C@@]2(C)[C@H](c3ccoc3)CC(=O)C12O (some centres undefined)
residual activity [1]: 28.24% | residual activity [2]: 54.44%

COc1ccc(C(=O)O[C@@H]2CC[C@@]3(C)[C@@H]4CC[C@H]5[C@]6(O)C[C@H](O)[C@@]7(O)[C@@H](CN8C[C@@H](C)CC[C@H]8[C@@]7(C)O)[C@]6(O)C[C@@]53O[C@@]42O)cc1OC.O=S(=O)(O)O
residual activity [2]: 91.85%

CC(=O)Oc1ccc2c(c1)CC[C@@H]1[C@@H]2CC[C@]2(C)[C@@H](OC(C)=O)CC[C@@H]12
residual activity [2]: 113.7%

Cc1cc(O)cc(=O)o1
residual activity [1]: 87.56% | residual activity [2]: 97.35%

CCCCC(CC)CN=C(N)N=C(N)NCCCCCCNC(N)=NC(N)=NCC(CC)CCCC.Cl (centres undefined) [ALEXIDINE HYDROCHLORIDE]
residual activity [1]: 69.95%

O=P(O)(O)O.c1ccc(CN(CC2=NCCN2)c2ccccc2)cc1 [ANTAZOLINE PHOSPHATE]
residual activity [2]: 97.11%

CC(=O)Oc1ccccc1C(=O)O [ASPIRIN]
residual activity [2]: 96.37%

CCCCCCCCCCCCC[N+](C)(C)Cc1ccccc1.[Cl-] [BENZALKONIUM CHLORIDE]
residual activity [1]: 78.42%

COc1ccc(-c2oc3cc(O[C@@H]4O[C@H](CO)[C@@H](O)[C@H](O)[C@H]4O)c(OC)c(O)c3c(=O)c2OC)cc1O [CENTAUREIN]
residual activity [2]: 91.7%

CC1=C(C(=O)O)N2C(=O)[C@@H](NC(=O)[C@H](N)C3=CCC=CC3)[C@H]2SC1 [CEPHRADINE]
residual activity [2]: 100.4%

Clc1ccccc1C(c1ccccc1)(c1ccccc1)n1ccnc1 [CLOTRIMAZOLE]
residual activity [2]: 105.9%

CC(=O)O[C@]1(C(C)=O)CC[C@H]2[C@@H]3C=C(Cl)C4=CC(=O)[C@@H]5C[C@@H]5[C@]4(C)[C@H]3CC[C@@]21C [CYPROTERONE ACETATE]
residual activity [2]: 103.2%

CC(=O)OCC(=O)[C@H]1CC[C@H]2[C@@H]3CCC4=CC(=O)CC[C@]4(C)[C@H]3CC[C@]12C [DESOXYCORTICOSTERONE ACETATE]
residual activity [2]: 88.97%

C[C@@H]1C[C@H]2[C@@H]3CCC4=CC(=O)C=C[C@]4(C)[C@@]3(F)[C@@H](O)C[C@]2(C)[C@@]1(O)C(=O)CO [DEXAMETHASONE]
residual activity [2]: 103.9%

CC/C(=C(/CC)c1ccc(O)cc1)c1ccc(O)cc1 [DIETHYLSTILBESTROL]
residual activity [2]: 45.56%

CC1(C)OC(=O)NC1=O [DIMETHADIONE]
residual activity [2]: 109.1%

OCCN(CCO)c1nc(N2CCCCC2)c2nc(N(CCO)CCO)nc(N3CCCCC3)c2n1 [DIPYRIDAMOLE]
residual activity [2]: 89.24%

O=c1[nH]c2ccccc2n1CCCN1CCC(n2c(=O)[nH]c3cc(Cl)ccc32)CC1 [DOMPERIDONE]
residual activity [2]: 111%

CN(C)CCC=C1c2ccccc2COc2ccccc21.Cl [DOXEPIN HYDROCHLORIDE]
residual activity [2]: 101.8%

C[C@H]1c2cccc(O)c2C(=O)C2=C(O)[C@]3(O)C(=O)C(C(N)=O)=C(O)[C@@H](N(C)C)[C@@H]3[C@@H](O)[C@@H]21.Cl [DOXYCYCLINE HYDROCHLORIDE]
residual activity [2]: 106%

CN(C)CCOC(C)(c1ccccc1)c1ccccn1.O=C(O)CCC(=O)O (centres undefined) [DOXYLAMINE SUCCINATE]
residual activity [2]: 108.8%

O=C(CCCN1CC=C(n2c(=O)[nH]c3ccccc32)CC1)c1ccc(F)cc1 [DROPERIDOL]
residual activity [2]: 147.6%

CN[C@@H](C)[C@H](O)c1ccccc1.Cl [EPHEDRINE HYDROCHLORIDE]
residual activity [2]: 105.1%

C=C1CC[C@H](O)C/C1=C/C=C1\CCC[C@]2(C)[C@@H]([C@H](C)/C=C/[C@H](C)C(C)C)CC[C@@H]12 [ERGOCALCIFEROL]
residual activity [2]: 28.81%

CC(=O)Oc1ccc2c(c1)CC[C@@H]1[C@@H]2CC[C@]2(C)[C@@H](O)CC[C@@H]12 [ESTRADIOL ACETATE]
residual activity [2]: 101%

CCC(=O)O[C@H]1CC[C@H]2[C@@H]3CCc4cc(O)ccc4[C@H]3CC[C@]12C [ESTRADIOL PROPIONATE]
residual activity [2]: 111.9%

CCOc1ccc(Cc2nccc3cc(OCC)c(OCC)cc23)cc1OCC.Cl [ETHAVERINE HYDROCHLORIDE]
residual activity [2]: 156.2%

COc1cc(O)c2c(=O)cc(C)oc2c1CC=C(C)C [HETEROPEUCENIN, METHYL ETHER]
residual activity [2]: 110.3%

COc1ccc2c(c1)O[C@H]1c3ccc(OC)cc3OC[C@@H]21 [HOMOPTEROCARPIN]
residual activity [2]: 109.3%

CN1[C@@H]2CC[C@H]1C[C@@H](OC(=O)[C@H](CO)c1ccccc1)C2 [HYOSCYAMINE]
residual activity [1]: 97.76%

CN1C[C@H](CNC(=O)OCc2ccccc2)C[C@@H]2c3cccc4c3c(cn4C)C[C@H]21 [METERGOLINE]
residual activity [2]: 93.79%

CCOC(=O)C1=C(C)NC(C)=C(C(=O)OC)C1c1cccc([N+](=O)[O-])c1 (centres undefined) [NITRENDIPINE]
residual activity [2]: 77.72%

COc1ccc(-c2cc(=O)c3c(OC)c(OC)c(OC)c(OC)c3o2)cc1OC [NOBILETIN]
residual activity [2]: 133.3%

O=C(O)CCc1nc(-c2ccccc2)c(-c2ccccc2)o1 [OXAPROZIN]
residual activity [2]: 71.47%

CC(=O)O[C@H]1C(=O)[C@@]2(C)[C@H]([C@H](OC(=O)c3ccccc3)[C@]3(O)C[C@H](OC(=O)[C@H](O)[C@@H](NC(=O)c4ccccc4)c4ccccc4)C(C)=C1C3(C)C)[C@]1(OC(C)=O)CO[C@@H]1C[C@@H]2O [PACLITAXEL]
residual activity [2]: 52.9%

CCCCC1C(=O)N(c2ccccc2)N(c2ccccc2)C1=O [PHENYLBUTAZONE]
residual activity [2]: 62.24%

COc1cc(O)cc(/C=C/c2ccccc2)c1 [PINOSYLVIN METHYL ETHER]
residual activity [2]: 91.5%

CC(=O)[C@H]1CC[C@H]2[C@@H]3CC=C4C[C@@H](O)CC[C@]4(C)[C@H]3CC[C@]12C [PREGNENOLONE]
residual activity [2]: 110.4%

COC1=C[C@@H](C)[C@@H]2C[C@H]3OC(=O)C[C@H]4C(C)=C(OC)C(=O)[C@H]([C@@]2(C)C1=O)[C@@]34C [QUASSIN]
residual activity [2]: 100.5%

COc1ccc(/C=C/c2cc(O)cc(O)c2)cc1 [RESVERATROL 4'-METHYL ETHER]
residual activity [2]: 135%

COc1ccc(-c2cc(=O)c3c(OC)c(OC)c(OC)c(OC)c3o2)cc1 [TANGERETIN]
residual activity [2]: 175%

CC(=O)Oc1c(C)c(C)c2c(c1C)CCC(C)(CCCC(C)CCCC(C)CCCC(C)C)O2 (stereo not drawn) [alpha-TOCHOPHERYL ACETATE]
residual activity [2]: 93.84%
